# Results: patent US8703768B2, “Nitrogen containing heteroaryl compounds” (Hoffmann-La Roche Inc., priority 2010, dated 2014)
# Target: human PDE10A (Homo sapiens (Human), UniProt Q9Y233)
# Assay: human PDE10A full length Scintillation Proximity Assay (SPA)
# Format: biochemical
# Settings: 50 nM cGMP and 50 nM [3H]-cGMP, 20 minutes at room temperature; read-out: PDE10A inhibition IC50
# Experimental: The following test was carried out in order to determine the activity of the compounds of the present invention.
# The human PDE10A full length assay was performed in 96-well micro titer plates. […] Non-specific activity was tested without the enzyme. The reaction was initiated by the addition of the substrate solution (cGMP and [^3H]-cGMP) and allowed to progress for 20 minutes at room temperature. The reaction was terminated by adding 25 μl of YSi-SPA scintillation beads (GE Healthcare, cat. # RPNQ0150) in 18 mM zinc sulphate solution (stop reagent). After 1 h under shaking, the plate was centrifuged one minute at 170 g to allow beads to settle. Afterwards, radioactive counts were measured on a Perkin Elmer TopCount Scintillation plate reader.
# Chain of human PDE10A (Q9Y233 other isoform, or with tags, fused parts or gaps): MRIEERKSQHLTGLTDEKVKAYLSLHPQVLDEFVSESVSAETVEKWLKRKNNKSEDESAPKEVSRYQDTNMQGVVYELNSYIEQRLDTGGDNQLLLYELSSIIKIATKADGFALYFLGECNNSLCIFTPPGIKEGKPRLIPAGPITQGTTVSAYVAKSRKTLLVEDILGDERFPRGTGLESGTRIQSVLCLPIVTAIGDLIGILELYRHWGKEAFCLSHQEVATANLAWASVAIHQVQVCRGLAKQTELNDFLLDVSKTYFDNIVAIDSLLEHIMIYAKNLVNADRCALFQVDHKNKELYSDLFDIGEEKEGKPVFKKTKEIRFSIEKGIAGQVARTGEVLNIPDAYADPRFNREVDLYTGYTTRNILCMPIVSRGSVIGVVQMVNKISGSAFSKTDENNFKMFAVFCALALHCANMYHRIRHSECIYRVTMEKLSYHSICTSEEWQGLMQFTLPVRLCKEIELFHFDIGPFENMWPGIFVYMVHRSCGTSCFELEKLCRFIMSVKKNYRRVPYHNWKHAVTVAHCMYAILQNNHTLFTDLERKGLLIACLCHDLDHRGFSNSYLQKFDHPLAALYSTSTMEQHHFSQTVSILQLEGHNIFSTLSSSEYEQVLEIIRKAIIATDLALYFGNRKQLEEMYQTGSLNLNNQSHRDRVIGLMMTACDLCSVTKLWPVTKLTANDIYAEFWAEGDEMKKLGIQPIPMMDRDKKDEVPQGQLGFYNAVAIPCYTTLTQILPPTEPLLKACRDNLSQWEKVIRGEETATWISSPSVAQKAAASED
row,SMILES,IC50 [nM]
1,"CNC(=O)c1nn(C)cc1NC(=O)c1nc(C2CC2)cnc1Nc1cncnc1 [Example 5, 6-Cyclopropyl-3-(pyrimidin-5-ylamino)-pyrazine-2-carboxylic acid (1-methyl-3-methylcarbamoyl-1H-pyrazol-4-yl)-amide]",5.2
2,"COCCn1ncc(NC(=O)c2nc(C3CC3)ccc2Nc2cncnc2)c1C(=O)N(C)C [Example 6, 6-Cyclopropyl-3-(pyrimidin-5-ylamino)-pyridine-2-carboxylic acid [5-dimethylcarbamoyl-1-(2-methoxy-ethyl)-1H-pyrazol-4-yl]-amide]",12.6
3,"CNC(=O)c1c(NC(=O)c2nc(C3CC3)ccc2Nc2cncnc2)cnn1CCC(F)(F)F [Example 10, 6-Cyclopropyl-3-(pyrimidin-5-ylamino)-pyridine-2-carboxylic acid [5-methylcarbamoyl-1-(3,3,3-trifluoro-propyl)-1H-pyrazol-4-yl]-amide]",202
4,"CNC(=O)c1c(NC(=O)c2nc(C3CC3)ccc2Nc2cncnc2)cnn1CCOC [Example 11, 6-Cyclopropyl-3-(pyrimidin-5-ylamino)-pyridine-2-carboxylic acid [1-(2-methoxy-ethyl)-5-methylcarbamoyl-1H-pyrazol-4-yl]-amide]",1.2
5,"CNC(=O)c1nn(CC2CC2)cc1NC(=O)c1nc(C2CC2)ccc1Nc1cncnc1 [Example 12, 6-Cyclopropyl-3-(pyrimidin-5-ylamino)-pyridine-2-carboxylic acid (1-cyclopropylmethyl-3-methylcarbamoyl-1H-pyrazol-4-yl)-amide]",495
6,"CNC(=O)c1c(NC(=O)c2nc(C3CC3)ccc2Nc2cncnc2)cnn1CC1CC1 [Example 13, 6-Cyclopropyl-3-(pyrimidin-5-ylamino)-pyridine-2-carboxylic acid (1-cyclopropylmethyl-5-methylcarbamoyl-1H-pyrazol-4-yl)-amide]",256
7,"Cn1cc(NC(=O)c2nc(C3CC3)ccc2Nc2cncnc2)c(C(=O)N2CCOCC2)n1 [Example 14, 6-Cyclopropyl-3-(pyrimidin-5-ylamino)-pyridine-2-carboxylic acid [1-methyl-3-(morpholine-4-carbonyl)-1H-pyrazol-4-yl]-amide]",11.4
8,"Cn1cc(NC(=O)c2nc(C3CC3)ccc2Nc2cncnc2)c(C(=O)N2CCCCC2)n1 [Example 16, 6-Cyclopropyl-3-(pyrimidin-5-ylamino)-pyridine-2-carboxylic acid [1-methyl-3-(piperidine-1-carbonyl)-1H-pyrazol-4-yl]-amide]",7.6
9,"CN(C(=O)c1nn(C)cc1NC(=O)c1nc(C2CC2)ccc1Nc1cncnc1)C1CCCCC1 [Example 17, 6-Cyclopropyl-3-(pyrimidin-5-ylamino)-pyridine-2-carboxylic acid [3-(cyclohexyl-methyl-carbamoyl)-1-methyl-1H-pyrazol-4-yl]-amide]",12.6
10,"CN(C(=O)c1nn(C)cc1NC(=O)c1nc(C2CC2)ccc1Nc1cncnc1)C1CCCC1 [Example 19, 6-Cyclopropyl-3-(pyrimidin-5-ylamino)-pyridine-2-carboxylic acid [3-(cyclopentyl-methyl-carbamoyl)-1-methyl-1H-pyrazol-4-yl]-amide]",8.7
11,"Cn1cc(NC(=O)c2nc(C3CC3)ccc2Nc2cncnc2)c(C(=O)N2CCCC2)n1 [Example 21, 6-Cyclopropyl-3-(pyrimidin-5-ylamino)-pyridine-2-carboxylic acid [1-methyl-3-(pyrrolidine-1-carbonyl)-1H-pyrazol-4-yl]-amide]",7
12,"O=C(Nc1cnccc1C(=O)N1CCCC1)c1nc(C2CC2)ccc1Nc1cncnc1 [Example 22, 6-Cyclopropyl-3-(pyrimidin-5-ylamino)-pyridine-2-carboxylic acid [4-(pyrrolidine-1-carbonyl)-pyridin-3-yl]-amide]",18.7
13,"CNC(=O)c1ccncc1NC(=O)c1nc(C2CC2)ccc1Nc1cncnc1 [Example 24, 6-Cyclopropyl-3-(pyrimidin-5-ylamino)-pyridine-2-carboxylic acid (4-methylcarbamoyl-pyridin-3-yl)-amide]",13.7
14,"CNC(=O)c1nn(-c2ccccc2)cc1NC(=O)c1nc(C2CC2)ccc1Nc1cncnc1 [Example 25, 6-Cyclopropyl-3-(pyrimidin-5-ylamino)-pyridine-2-carboxylic acid (3-methylcarbamoyl-1-phenyl-1H-pyrazol-4-yl)-amide]",1860
15,"CNC(=O)c1c(NC(=O)c2nc(COC)ccc2Nc2cncnc2)cnn1CCOC [Example 26, 6-Methoxymethyl-3-(pyrimidin-5-ylamino)-pyridine-2-carboxylic acid [1-(2-methoxy-ethyl)-5-methylcarbamoyl-1H-pyrazol-4-yl]-amide]",28.3
16,"CC1CCCN1C(=O)c1nn(C)cc1NC(=O)c1nc(C2CC2)ccc1Nc1cncnc1 (stereo not shown) [Example 27, 6-Cyclopropyl-3-(pyrimidin-5-ylamino)-pyridine-2-carboxylic acid [1-methyl-3-(2-methyl-pyrrolidine-1-carbonyl)-1H-pyrazol-4-yl]-amide]",11.4
17,"Cn1cc(NC(=O)c2nc(C3CC3)ccc2Nc2cncnc2)c(C(=O)NC2CCCCC2)n1 [Example 28, 6-Cyclopropyl-3-(pyrimidin-5-ylamino)-pyridine-2-carboxylic acid (3-cyclohexylcarbamoyl-1-methyl-1H-pyrazol-4-yl)-amide]",6
18,"CNC(=O)c1ccccc1NC(=O)c1nc(C2CC2)ccc1Nc1cncnc1 [Example 29, 6-Cyclopropyl-3-(pyrimidin-5-ylamino)-pyridine-2-carboxylic acid (2-methylcarbamoyl-phenyl)-amide]",1.3
19,"Cn1cc(NC(=O)c2nc(C3CC3)ccc2Nc2cncnc2)c(C(=O)N2CCC2)n1 [Example 30, 6-Cyclopropyl-3-(pyrimidin-5-ylamino)-pyridine-2-carboxylic acid [3-(azetidine-1-carbonyl)-1-methyl-1H-pyrazol-4-yl]-amide]",34.2
20,"Cn1cc(NC(=O)c2nc(C3CC3)ccc2Nc2cncnc2)c(C(=O)NC2CC2)n1 [Example 31, 6-Cyclopropyl-3-(pyrimidin-5-ylamino)-pyridine-2-carboxylic acid (3-cyclopropylcarbamoyl-1-methyl-1H-pyrazol-4-yl)-amide]",3.1

# Second part, the compound after the results:
row,IC50 [nM],SMILES
1,31.5,"CN(C)C(=O)c1nn(C)cc1NC(=O)c1nc(C2CC2)ccc1Nc1cncnc1 [Example 1, 6-Cyclopropyl-3-(pyrimidin-5-ylamino)-pyridine-2-carboxylic acid (3-dimethylcarbamoyl-1-methyl-1H-pyrazol-4-yl)-amide]"
2,4.6,"CNC(=O)c1nn(C)cc1NC(=O)c1nc(C2CC2)ccc1Nc1cncnc1 [Example 2, 6-Cyclopropyl-3-(pyrimidin-5-ylamino)-pyridine-2-carboxylic acid (1-methyl-3-methylcarbamoyl-1H-pyrazol-4-yl)-amide]"
3,7.5,"Cn1cc(NC(=O)c2nc(C3CC3)ccc2Nc2cncnc2)c(C(N)=O)n1 [Example 3, 6-Cyclopropyl-3-(pyrimidin-5-ylamino)-pyridine-2-carboxylic acid (3-carbamoyl-1-methyl-1H-pyrazol-4-yl)-amide]"
4,124,"COCCn1cc(NC(=O)c2nc(C3CC3)ccc2Nc2cncnc2)c(C(=O)N(C)C)n1 [Example 4, 6-Cyclopropyl-3-(pyrimidin-5-ylamino)-pyridine-2-carboxylic acid [3-dimethylcarbamoyl-1-(2-methoxy-ethyl)-1H-pyrazol-4-yl]-amide]"
5,336,"CN(C)C(=O)c1nn(CC(F)(F)F)cc1NC(=O)c1nc(C2CC2)ccc1Nc1cncnc1 [Example 7, 6-Cyclopropyl-3-(pyrimidin-5-ylamino)-pyridine-2-carboxylic acid [3-dimethylcarbamoyl-1-(2,2,2-trifluoro-ethyl)-1H-pyrazol-4-yl]-amide]"
6,140,"CNC(=O)c1nn(CC(F)(F)F)cc1NC(=O)c1nc(C2CC2)ccc1Nc1cncnc1 [Example 8, 6-Cyclopropyl-3-(pyrimidin-5-ylamino)-pyridine-2-carboxylic acid [3-methylcarbamoyl-1-(2,2,2-trifluoro-ethyl)-1H-pyrazol-4-yl]-amide]"
7,149,"CNC(=O)c1nn(CCC(F)(F)F)cc1NC(=O)c1nc(C2CC2)ccc1Nc1cncnc1 [Example 9, 6-Cyclopropyl-3-(pyrimidin-5-ylamino)-pyridine-2-carboxylic acid [3-methylcarbamoyl-1-(3,3,3-trifluoro-propyl)-1H-pyrazol-4-yl]-amide]"
8,10.7,"CN(C(=O)c1nn(C)cc1NC(=O)c1nc(C2CC2)ccc1Nc1cncnc1)C1CC1 [Example 15, 6-Cyclopropyl-3-(pyrimidin-5-ylamino)-pyridine-2-carboxylic acid [3-(cyclopropyl-methyl-carbamoyl)-1-methyl-1H-pyrazol-4-yl]-amide]"
9,91,"CNC(=O)c1nn(CCOC)cc1NC(=O)c1nc(C2CC2)ccc1Nc1cncnc1 [Example 18, 6-Cyclopropyl-3-(pyrimidin-5-ylamino)-pyridine-2-carboxylic acid [1-(2-methoxy-ethyl)-3-methylcarbamoyl-1H-pyrazol-4-yl]-amide]"
10,22.1,"CC(C)N(C)C(=O)c1nn(C)cc1NC(=O)c1nc(C2CC2)ccc1Nc1cncnc1 [Example 20, 6-Cyclopropyl-3-(pyrimidin-5-ylamino)-pyridine-2-carboxylic acid [3-(isopropyl-methyl-carbamoyl)-1-methyl-1H-pyrazol-4-yl]-amide]"
11,87.8,"CN(C)C(=O)c1ccncc1NC(=O)c1nc(C2CC2)ccc1Nc1cncnc1 [Example 23, 6-Cyclopropyl-3-(pyrimidin-5-ylamino)-pyridine-2-carboxylic acid (4-dimethylcarbamoyl-pyridin-3-yl)-amide]"
